Measurements: patent US20070128217A1 (priority 2003, published 2007)

Key:
[1] = system: rabbit serum obtained by immunizing a rabbit with the SARS-CoV strain Frankfurt 1; format: binding; design: Binding of a rabbit serum to linear peptides / Binding of a rabbit serum to looped peptides / Rabbit serum linear peptides / Rabbit serum looped peptides / Binding of a rabbit serum to linear peptides of protein N of SARS-CoV Urbani (Rabbit serum linear peptides) / Binding of a rabbit serum to looped/cyclic peptides of protein N of SARS-CoV Urbani (Rabbit serum looped peptides): unit not given here
[2] = system: control sera (pooled serum of ten healthy LUMC hospital workers; commercial negative donor pooled serum from the Dutch bloodbank); format: binding, human; design: Binding of Control serum LUMC to linear peptides / Binding of Control serum Blood-bank to linear peptides / Binding of Control serum LUMC to looped peptides / Binding of Control Serum Blood-Bank to Looped peptides / Binding of Control serum LUMC to linear peptides of the protein M of SARS-CoV Urbani / Binding of Control serum Blood-bank to linear peptides of the protein M of SARS-CoV Urbani / Binding of Control serum LUMC to looped peptides of the protein M of SARS-CoV Urbani / Binding of Control Serum Blood-Bank to Looped peptides of the protein M of SARS-CoV Urbani: unit not given here
[3] = system: antibodies in sera from SARS patients (sera 1a, 1b, 2, 6, 37, 62, London, SARS-yellow, SARS-green); format: binding, human; design: Binding of serum 6 to linear peptides of protein X1 of SARS-CoV Urbani / Binding of serum 37 to linear peptides of protein X1 of SARS-CoV Urbani / Binding of serum 6 to looped/cyclic peptide (PEPSCAN-ELISA) / Binding of serum 37 to looped/cyclic peptide (PEPSCAN-ELISA) / Binding of serum 37 to looped/cyclic peptides of protein X1 of SARS-CoV Urbani / Binding of serum 6 to linear peptides of protein X2 / Binding of serum 37 to linear peptides of protein X2 / Binding of serum 37 to looped/cyclic peptides of protein X2 of SARS-CoV Urbani / Binding of serum 6 to linear peptides of protein M of SARS-CoV Urbani / Binding of serum 37 to linear peptides of protein M of SARS-CoV Urbani / Binding of serum 6 to looped/cyclic peptides of protein M of SARS-CoV Urbani / Binding of serum 37 to looped/cyclic peptides of protein M of SARS-CoV Urbani / Binding of serum 6 to linear peptides of protein X3 of SARS-CoV Urbani / Binding of serum 37 to linear peptides of protein X3 of SARS-CoV Urbani / Binding of serum 37 to looped/cyclic peptides of protein X3 of SARS-CoV Urbani / Binding of serum 6 to linear peptides of protein X4 of SARS-CoV Urbani / Binding of serum 37 to linear peptides of protein X4 of SARS-CoV Urbani / Binding of serum 37 to looped/cyclic peptides of protein X4 of SARS-CoV Urbani / Binding of serum 6 to linear peptides of protein X5 of SARS-CoV Urbani / Binding of serum 37 to linear peptides of protein X5 of SARS-CoV Urbani / Binding of serum 37 to looped/cyclic peptides of protein X5 of SARS-CoV Urbani / Binding of serum 6 to linear peptides of protein N of SARS-CoV Urbani / Binding of serum 37 to linear peptides of protein N of SARS-CoV Urbani / Binding of serum 6 to linear peptide (PEPSCAN-ELISA) / Binding of serum 1a to looped/cyclic peptides of protein N of SARS-CoV Urbani / Binding of serum 1b to looped/cyclic peptides of protein N of SARS-CoV Urbani / Binding of serum 2 to looped/cyclic peptides of protein N of SARS-CoV Urbani / Binding of serum 6 to looped/cyclic peptides of protein N of SARS-CoV Urbani / Binding of serum 37 to looped/cyclic peptides of protein N of SARS-CoV Urbani / Binding of serum 62 to looped/cyclic peptides of protein N of SARS-CoV Urbani / Binding of serum London to looped/cyclic peptides of protein N of SARS-CoV Urbani / Binding of serum SARS-green to looped/cyclic peptides of protein N of SARS-CoV Urbani: unit not given here

Question: For MLLQFAYSNRNRFLY, which “Rabbit serum linear peptides” value [1] is on record?
Answer: 0.5

Question: And the “Rabbit serum looped peptides” value [1]?
Answer: 0.0

Question: And the “Binding of Control Serum Blood-Bank to Looped peptides of the protein M of SARS-CoV Urbani” value [2]?
Answer: 0.4

Question: What about the “Binding of Control serum Blood-bank to linear peptides of the protein M of SARS-CoV Urbani” value [2] of the same sequence?
Answer: 0.6

Question: And the “Binding of Control serum LUMC to linear peptides of the protein M of SARS-CoV Urbani” value [2]?
Answer: 0.3

Question: And the “Binding of Control serum LUMC to looped peptides of the protein M of SARS-CoV Urbani” value [2]?
Answer: 0.5

Question: What about the “Binding of serum 1a to linear peptides of protein M of SARS-CoV Urbani” value [3] of the same sequence?
Answer: 0.6

Question: And the “Binding of serum 1a to looped/cyclic peptides of protein M of SARS-CoV Urbani” value [3]?
Answer: 0.8

Question: And the “Binding of serum 1b to linear peptides of protein M of SARS-CoV Urbani” value [3]?
Answer: 0.4

Question: And the “Binding of serum 1b to looped/cyclic peptides of protein M of SARS-CoV Urbani” value [3]?
Answer: 0.2

Question: And the “Binding of serum 2 to linear peptides of protein M of SARS-CoV Urbani” value [3]?
Answer: 0.5

Question: And the “Binding of serum 2 to looped/cyclic peptides of protein M of SARS-CoV Urbani” value [3]?
Answer: 0.6

Question: What about the “Binding of serum 6 to linear peptides of protein M of SARS-CoV Urbani” value [3] of the same sequence?
Answer: 0.2

Question: And the “Binding of serum 6 to looped/cyclic peptides of protein M of SARS-CoV Urbani” value [3]?
Answer: 1.3

Question: And the “Binding of serum 37 to linear peptides of protein M of SARS-CoV Urbani” value [3]?
Answer: 0.8

Question: And the “Binding of serum 37 to looped/cyclic peptides of protein M of SARS-CoV Urbani” value [3]?
Answer: 0.6

Question: What about the “Binding of serum 62 to linear peptides of protein M of SARS-CoV Urbani” value [3] of the same sequence?
Answer: 0.7

Question: And the “Binding of serum 62 to looped/cyclic peptides of protein M of SARS-CoV Urbani” value [3]?
Answer: 0.5

Question: What about the “Binding of serum London to linear peptides of protein M of SARS-CoV Urbani” value [3] of the same sequence?
Answer: 0.2

Question: What about the “Binding of serum London to looped/cyclic peptides of protein M of SARS-CoV Urbani” value [3] of the same sequence?
Answer: 0.3

Question: What about the “Binding of serum SARS-green to linear peptides of protein M of SARS-CoV Urbani” value [3] of the same sequence?
Answer: 0.2

Question: And the “Binding of serum SARS-green to looped/cyclic peptides of protein M of SARS-CoV Urbani” value [3]?
Answer: 0.2

Question: What about the “Binding of serum SARS-yellow to linear peptides of protein M of SARS-CoV Urbani” value [3] of the same sequence?
Answer: 0.1

Question: What about the “Binding of serum SARS-yellow to looped/cyclic peptides of protein M of SARS-CoV Urbani” value [3] of the same sequence?
Answer: 0.3

Question: Which results are given for MMSRRRLLACLCKHK?
Answer: Binding of a rabbit serum to linear peptides [1]: 0.4; Binding of a rabbit serum to looped peptides [1]: 0.3; Binding of Control Serum Blood-Bank to Looped peptides [2]: 0.2; Binding of Control serum Blood-bank to linear peptides [2]: 0.8; Binding of Control serum LUMC to linear peptides [2]: 0.5; Binding of Control serum LUMC to looped peptides [2]: 0.2; Binding of serum 1a to looped/cyclic peptides of protein X2 of SARS-CoV Urbani [3]: 0.2; Binding of serum 1b to looped/cyclic peptides of protein X2 of SARS-CoV Urbani [3]: 0.2; Binding of serum 2 to looped/cyclic peptides of protein X2 of SARS-CoV Urbani [3]: 0.1; Binding of serum 6 to looped/cyclic peptides of protein X2 of SARS-CoV Urbani [3]: 0.0; Binding of serum 37 to looped/cyclic peptides of protein X2 of SARS-CoV Urbani [3]: 0.2; Binding of serum 62 to looped/cyclic peptides of protein X2 of SARS-CoV Urbani [3]: 0.3; Binding of serum London to looped/cyclic peptides of protein X2 of SARS-CoV Urbani [3]: 0.1; Binding of serum SARS-green to looped/cyclic peptides of protein X2 of SARS-CoV Urbani [3]: 0.1; Binding of serum SARS-yellow to looped/cyclic peptides of protein X2 of SARS-CoV Urbani [3]: 0.2; Recognition of the peptide by sera of SARS-CoV infected individuals, and form (linear, looped/cyclic) in which it is recognized [3]: recognized in linear form

Question: How did the “Binding of a rabbit serum to linear peptides” value [1] turn out when MRCWLCWKCKSKNPL was run?
Answer: 0.1

Question: And the “Binding of a rabbit serum to looped peptides” value [1]?
Answer: 0.5

Question: And the “Binding of Control Serum Blood-Bank to Looped peptides” value [2]?
Answer: 0.2

Question: And the “Binding of Control serum Blood-bank to linear peptides” value [2]?
Answer: 0.9

Question: And the “Binding of Control serum LUMC to linear peptides” value [2]?
Answer: 0.8

Question: What about the “Binding of Control serum LUMC to looped peptides” value [2] of the same sequence?
Answer: 0.4

Question: What about the “Binding of serum 1a to looped/cyclic peptide (PEPSCAN-ELISA)” value [3] of the same sequence?
Answer: 0.2

Question: And the “Binding of serum 1b to looped/cyclic peptide (PEPSCAN-ELISA)” value [3]?
Answer: 0.2

Question: What about the “Binding of serum 2 to looped/cyclic peptide (PEPSCAN-ELISA)” value [3] of the same sequence?
Answer: 0.0

Question: What about the “Binding of serum 6 to looped/cyclic peptide (PEPSCAN-ELISA)” value [3] of the same sequence?
Answer: 0.1

Question: And the “Binding of serum 37 to looped/cyclic peptide (PEPSCAN-ELISA)” value [3]?
Answer: 0.2

Question: And the “Binding of serum 62 to looped/cyclic peptide (PEPSCAN-ELISA)” value [3]?
Answer: 0.3

Question: What about the “Binding of serum London to looped/cyclic peptide (PEPSCAN-ELISA)” value [3] of the same sequence?
Answer: 0.2

Question: And the “Binding of serum SARS-green to looped/cyclic peptide (PEPSCAN-ELISA)” value [3]?
Answer: 0.1

Question: And the “Binding of serum SARS-yellow to looped/cyclic peptide (PEPSCAN-ELISA)” value [3]?
Answer: 0.2

Question: And the “Recognition of the peptide by sera of SARS-CoV infected individuals, and form (linear, looped/cyclic) in which it is recognized” value [3]?
Answer: recognized in linear form
